Structures are written as SMILES. Where only a bound is given, the exact number is not on record here.

The term melting point denotes the temperature, or range, at which the solid turns liquid. As for `COc1ccc(-c2ccc(C)n2CC[C@H]2C[C@H](O)CC(=O)O2)cc1` (relative stereo), the melting point worked out at 95 °C.
`Cn1c(=O)cc(CCc2cccc(Cl)c2)c2cc(C(O)(c3ccc(Cl)cc3)c3cccnc3)ccc21` (stereo unspecified) registered a melting point of 115 °C.
The molecule `Nc1cc(Br)cc2cccnc12` showed a melting point of 142 to 145 °C.
In turn, `CN(C)C1(c2ccccc2)CCC(CNC(=O)N2CCCC(c3c[nH]c4ccc(F)cc34)C2)CC1` (stereo unspecified) returned a melting point of 98 to 101 °C.
Turning to `CC(=O)NNCc1c[nH]c(=S)n1[C@H]1CCc2c(F)cc(F)cc2C1`, the melting point lay within 144 to 153 °C.
As for `CCCn1c(=O)c2[nH]c(/C=C/c3ccc4c(c3)OCCO4)nc2n(CCC)c1=O`, the figure is over 275 °C.
Take `CC(C)(C)OC(=O)Nc1ccc2ccc(S(=O)(=O)N(Cc3ccccc3)Cc3ccccc3)cc2c1`: the melting point lay within 139 to 140 °C.
As for `COc1ccc(S(=O)(=O)N(C)c2ccc(Cl)cc2C(O)c2ccccc2Cl)cc1OC` (stereo unspecified), the figure is 173 °C.
Molecule `COC(=O)C1=Cc2ccccc2OC1` registered a melting point of 56 to 57 °C.
As to `NS(=O)(=O)c1ccc(-n2nc(C(F)(F)F)cc2-c2ccc(OS(=O)(=O)C(F)(F)F)c(Cl)c2)cn1`, the melting point lay within 118 to 120 °C.
In turn, `Cc1cc([N+](=O)[O-])ccc1N1CCN(C(=O)OC(C)(C)C)CC1` returned a melting point of 122 to 123 °C.
Take `CCc1cc2[nH]c(=O)oc2cc1NCC1CCCOC1` (stereo unspecified): the melting point was 148 °C.
For `Cn1cc(O)c(=O)c2cccc(F)c21`, the melting point was 248 °C.
The molecule `O=c1[nH]cccc1-c1cccnc1` returned a melting point of 189 to 192 °C.
`CCOC(=O)C1=C(C)NC(C)=C(C(=O)OC)C1c1ccc([N+](=O)[O-])cc1` (stereo unspecified) returned a melting point of 150 °C.
Molecule `COc1ccc(N2CCN(C(=O)c3ccccc3C(c3ccc(O)cc3)c3ccc(O)cc3)CC2)cc1` displayed a melting point of 208 to 210 °C.
The result for `COCCNC(=O)Cc1ccc2ccn(C3CCN(CCc4ccc(F)cc4)CC3)c2c1` reads 113 to 114 °C; that for `CC1(C)CC(=O)C2=C(C1)NC1=C(C(=O)CC(C)(C)C1)C2c1ccc(C(F)(F)F)c(F)c1`, 296 to 300 °C; that for `Cn1ncc(/C=C/C(=O)Nc2ccc(CN3C(=O)COC3=O)cc2)c1-c1ccc(F)cc1`, 239 to 240 °C.
Take `Oc1ccc2c(c1)CCCC(c1ccccc1)=C2c1ccc(OCCCCSCCCC(F)(F)C(F)(F)F)cc1`: the melting point was found to be 167 °C.
As to `CCOc1ccc(Br)c(F)c1Cl`, the melting point lay within 65.4 to 66.1 °C.
As for `O=C(O)c1cccc(-c2ncco2)c1`, the melting point lay within 187 to 188 °C.
On to `O=C1c2cccc3c2N(C(=O)C2CCCN12)C(c1ccccc1)O3` (stereo unspecified), for which the melting point was 160 to 163 °C.
`O=C(O)C(Cc1ccccc1)Oc1ccc2cc(-c3csc(-c4ccccc4)n3)ccc2c1Br` (stereo unspecified) registered a melting point of 220 to 224 °C.
In the case of `CCc1cnc2c(NC(=O)c3c(Cl)cccc3Cl)cccc2c1CCC(N)=O`, the melting point was 235 to 236 °C.
`CN(C)Cc1ccc(CSCCNC(=C[N+](=O)[O-])NCCCCCCCCCCCCNC(=C[N+](=O)[O-])NCCSCc2ccc(CN(C)C)o2)o1` registered a melting point of 74 to 76 °C.
Turning to `Cc1c(C(N)=O)oc2ccc(Cc3cccnc3)cc12`, the melting point lay within 175 to 177 °C.
The result for `Cc1ncc(-c2ccc([C@H](C)N3CC[C@](CC(C)(C)O)(c4ccccc4)OC3=O)cc2)cn1` reads 112 to 115 °C.
In the case of `CSc1nc2ccnn2c2ncccc12`, the melting point was 192 °C.
The result for `CCOc1nn(-c2ccc(C(F)(F)F)cc2)cc1CCCOc1ccc(CCC(=O)O)cc1OC` reads 125 to 126 °C; that for `CC(C)(C)OC(=O)NCCNC(=O)c1csc(Cl)n1`, 127 to 129 °C.
On to `CC(C)(C)CC(C)(C)c1cc(-n2nc3ccc(Cl)cc3n2)c(O)c(C(C)(C)c2ccccc2)c1`, for which the melting point lay in the range of 104 to 105 °C.
With `COC(=O)C(Cc1c[nH]c2ccccc12)NC(=O)c1ccc2c(c1)OCO2` (stereo unspecified), the melting point lay within 123 to 124 °C.
As for `COc1ccc2[nH]c3c([N+](=O)[O-])ccc(Cl)c3c(=O)c2c1Cl`, the figure is 251 to 253 °C.
Molecule `CN(C[C@H]1CC[C@H](c2nc3ccccc3[nH]2)CC1)C(=O)OCc1ccccc1` yielded a melting point of 146 to 148 °C.
As for `CCNCC1CCN(c2c(F)cc3c(=O)c(C(=O)O)cn(C4(C)CC4)c3c2F)C1` (stereo unspecified), the figure is 261 to 263 °C; as for `CS(=O)(=O)c1ccc(CCl)cc1`, 102 °C.
As for `O=C(C(=Cc1ccc(Cl)cc1)c1ccc(Cl)cc1)c1ccc(O)cc1`, the figure is 132 to 136 °C.
`CC(C)(C)c1cc(OCc2ccccc2C(=O)O)cc(C(C)(C)C)c1` came in with a melting point of 173 to 174 °C.
`OC(CCc1cccnc1)CSc1ccc(-c2ccccc2)cc1` (stereo unspecified) returned a melting point of 128 to 130 °C.
`CC1(COc2ccc(OCCN3CC(COc4ccccc4)OC3=O)cc2)OCCO1` (stereo unspecified) gave a melting point of 75 to 77 °C.
In the case of `Cc1cc(C)nc(NC(=O)NS(=O)(=O)c2ccccc2C(=O)N(C)C)n1`, the melting point was in the range of 166 to 168 °C.
For the molecule `COc1cc(C#N)c(N=C(C)N(C)C)cc1OC`, the melting point lay within 94 to 96 °C.
In turn, `CCc1cc(C(C)=O)c(O)cc1OCCCCCn1cncn1` yielded a melting point of 87 °C.
For `CCN(CC)C(=O)c1ccc(C)c(-c2nc(NCCNC(C)C)nc3c2CNC(=O)N3c2c(F)cccc2F)c1`, the melting point was 89 to 91 °C.
As for `NS(=O)(=O)Oc1ccccc1`, the figure is 81 to 85 °C; as for `CC(C)(NC(N)=O)C(=O)NCCO[N+](=O)[O-]`, 98 to 100 °C.
The result for `CC(C)(C)C1=CC(O)(C(F)(F)F)C(=O)C(C(C)(C)C)=C1` (stereo unspecified) reads 58 to 61 °C.
Take `CC(Br)C(=O)c1ccc(OCc2ccccc2)c(CO)c1` (stereo unspecified): the melting point was found to be 80 °C.
`COc1ccc(-c2cnn3c(N)c(-c4ccc(F)c(F)c4)c(C)nc23)cc1OC` gave a melting point of 230 to 235 °C.
Molecule `CC(=O)c1ccc2nc(NC(=O)c3ccc(C(C)(C)C)cc3)cn2n1` displayed a melting point of 237 to 238 °C.
The result for `Cc1ncsc1C(O)c1cccc(N(C)C)c1` (stereo unspecified) reads 135 to 138 °C.
Molecule `CCOC(=O)CNc1nc(Cl)nc(Cl)n1` came in with a melting point of 82 to 87 °C.
The result for `Cc1ccc(N2C(=O)C(O)=C(C(=O)c3ccc(OC(F)(F)F)cc3)C2c2ccc(Cn3ncnn3)cc2)nn1` (stereo unspecified) reads 258 °C; that for `CC(=N)NC(=O)Nc1ccc(C#N)c(Cl)c1`, 182 to 183 °C.
Regarding `N=C(NCCN1CCC(Nc2nc3ccccc3n2Cc2ccc(F)cc2)CC1)N[N+](=O)[O-]`, the melting point was found to be 147 °C.
Consider `CCOC(=O)c1c(C)nc2sc3c(c2c1OS(=O)(=O)C(F)(F)F)CCC1(C3)OCCO1`, for which the melting point is 133 to 134 °C.
`COc1cccc(OC)c1-c1cc(C(=O)NC2(C(=O)O)C3CC4CC(C3)CC2C4)nn1-c1ccc(C(=O)NC2CC(C)(C)NC(C)(C)C2)cc1C(C)C` (stereo unspecified) returned a melting point of 270 to 272 °C.
Turning to `Cc1csc2nc3cc(F)ccc3n12`, the melting point is 148 °C.
For `COc1cc2ncc(C#N)c(Nc3ccc(F)c(Cl)c3)c2cc1NC(=O)C=CCN1C(C)CCC1C` (stereo unspecified), the melting point is 110 to 113 °C.
On to `CC(O)=C(C#N)C(=O)Nc1ccc(OC(F)(F)F)cc1`, for which the melting point lay within 171 to 176 °C.
In turn, `CCCCn1c(=O)c2c(cnn2S(=O)(=O)CCC)n(CCCC)c1=O` showed a melting point of 44 to 48 °C.
On to `COc1ccc(C2CCN(c3c(C)c(C)c4c(c3C)[C@@H](c3ccc(C)cc3)C(C)(C)O4)CC2)cc1OC`, for which the melting point lay in the range of 102 to 106 °C.
As for `Cc1c(Cc2ccccc2)c(=O)oc2cc(OCC3NOC(=O)N3)cc(OCC3NOC(=O)N3)c12` (stereo unspecified), the melting point fell in the range of 130 to 136 °C.
`O=C(N[C@H]1CN(Cc2ccccc2)[C@@H]2CCO[C@H]12)C(F)(F)F` (relative stereo): the melting point was in the range of 150 to 154 °C.
In turn, `CCCCCCCCCCCCCCOc1ccc(CC(=O)OC)cc1` displayed a melting point of 36 to 38 °C.
As for `O=C(O)CCc1ccc(CCN2CCN(S(=O)(=O)c3ccccc3)CC2)cc1`, the figure is 177 to 178 °C; as for `CCCCS(=O)(=O)ON=C(C#N)c1ccc(OC)cc1`, 71 °C.
In the case of `Cc1cc(C(=O)N(C)CCO)ncc1C(c1cc(F)ccc1F)S(=O)(=O)c1ccc(F)cc1` (stereo unspecified), the melting point is 123 to 125 °C.
As for `Oc1ccc(C2Oc3ccccc3C=C2c2ccc(OC3CCCCO3)cc2)cc1` (stereo unspecified), the figure is 110 °C; as for `Cc1nn(-c2ccc(C(F)(F)F)cn2)cc1C=O`, 226 to 227 °C.
Molecule `Cc1ccc(S(=O)(=O)OCCCCCCn2c3c(c4ccccc4c2=O)C(=O)c2ccccc2-3)cc1` returned a melting point of 146 to 149 °C.
Turning to `CC(C)c1ccc(N(CC(=O)N2CCOCC2)C(=O)C2CCCc3ccccc32)cc1` (stereo unspecified), the melting point came out at 180 °C.
Molecule `COc1cc(OCC(CO)CO)c(C=O)cc1-c1cccs1` came in with a melting point of 144 to 145 °C.
The molecule `COC(=O)c1cc(N(CCO)CCO)c(S(C)(=O)=O)cc1[N+](=O)[O-]` had a melting point of 99 to 100 °C.
`Cn1nc(-c2ccc(Cl)cc2Cl)cc1O` displayed a melting point of 128 °C.
With `c1ccc(-c2cc(N3CCCCC3)c(-c3ccccc3)o2)cc1`, the melting point stood at 103 °C.
As to `O=C(C[C@@H](NC(=O)C(F)(F)F)C(=O)O)c1ccc(F)c(F)c1`, the melting point is 136 to 137 °C.
As to `Cc1noc(NS(=O)(=O)c2cccc(C(F)(F)F)c2)c1Br`, the melting point lay in the range of 113 to 115 °C.
Molecule `COC1(c2cc(F)cc(Sc3ccc(/C(C)=N/O)c(O)c3)c2)CCOCC1` had a melting point of 140 to 142 °C.
The molecule `CCOc1nc(N)nc(C(F)(F)F)n1` came in with a melting point of 124 to 125 °C.
For `O=C1CCC(N2C(=O)c3cccc(OCc4ccccc4)c3C2=O)C(=O)N1` (stereo unspecified), the melting point lay in the range of 238 to 240 °C.
In turn, `O=C1COc2ccc(C3=C(c4ccc(Cl)cc4Cl)C(=O)OC3)cc2N1` yielded a melting point of 233 to 234 °C.
As for `CC(C)(C)c1ccc(C2CCCN3CCS(=O)(=O)N=C23)cc1` (stereo unspecified), the figure is 232 to 236 °C.
Consider `Fc1ccccc1-c1noc2c(Cl)c(OCCBr)ccc12`, for which the melting point lay within 131 to 132 °C.
The molecule `CCOC(=O)c1cc(=O)c2ccc(OCCCCCOc3ccc(C(C)=O)c(O)c3)cc2o1` showed a melting point of 136 to 137 °C.
